Measured values taken from patent US6410547B1, “Phenylpyridine derivatives useful as phosphodiesterase inhibitors” (Novartis AG, priority 1996, dated 2002).
Structures can show the parent of a compound that is named as a salt.

With COc1ccc(-c2ccncc2)cc1-c1cccc(Cl)c1 (as salt: hydrochloride) [Example 7, 4-[2-(Methoxy)-3′-(chloro)biphenyl-5-yl]pyridine] the melting point was 156 to 210 °C.
COc1ccc(-c2ccncc2)cc1-c1cccc(Oc2ccccc2)c1 (as salt: hydrochloride) [Example 9, 4-[2-(Methoxy)-3′-(phenoxy)biphenyl-5-yl]pyridine] gave a melting point of 184 to 204 °C.
In the case of COc1ccc(-c2ccncc2)cc1-c1ccc(Oc2ccccc2)cc1 (as salt: hydrochloride) [Example 10, 4-[2-(Methoxy)4′-(phenoxy)biphenyl-5-yl]pyridine], the melting point was 173 to 218 °C.
Molecule COc1ccc(-c2ccncc2)cc1-c1ccc(F)c(Cl)c1 (as salt: hydrochloride) [Example 11, 4-[2-(Methoxy)-3′-(chloro)4′-(fluoro)biphenyl-5-yl]pyridine] has a melting point of 115 °C.
Molecule COc1ccc(-c2ccncc2)cc1-c1ccc2nonc2c1 [Example 5, 4-[4-Methoxy-3-(5-benzofurazanyl)phenyl]pyridine] has a melting point of 187 to 192 °C.
For CCOC(=O)c1ccc(-c2ccc(OC)c(-c3cccc([N+](=O)[O-])c3)c2)cc1 [Example 13, 4′-Methoxy-3′-(3-nitrophenyl)-[1,1′-biphenyl]-4-carboxylic acid, ethyl ester], the melting point was 106 to 108 °C.
Work on CCOC(=O)c1cccc(-c2ccc(OC)c(-c3cccc([N+](=O)[O-])c3)c2)c1 [Example 14, 4′-Methoxy-3′-(3-nitrophenyl)-[1,1′-biphenyl]-3-carboxylic acid, ethyl ester] yielded a melting point of 87 to 89 °C.
CCOC(=O)c1ccc(-c2ccc(OC)c(-c3cccc([N+](=O)[O-])c3)c2)cc1C [Example 15, 4′-Methoxy-3-methyl-3′-(3-nitrophenyl)-[1,1′-biphenyl]-4-carboxylic acid, ethyl ester] showed a melting point of 88 to 90 °C.
Molecule CCOC(=O)c1ccc(-c2ccc(OC)c(-c3ccc4nonc4c3)c2)cc1 [Example 16, 3′-(5-Benzofurazanyl)-4′-methoxy-[1,1′-biphenyl]-4-carboxylic acid, ethyl ester] has a melting point of 166 to 168 °C.
In the case of COc1ccc(-c2ccc(C(=O)OCC(C)(C)C)cc2)cc1-c1ccc2nonc2c1 [Example 17, 3′-(5-Benzofurazanyl)-4′-methoxy-[1,1′-biphenyl]-4-carboxylic acid, 2,2-dimethylpropyl ester], the melting point was 131 to 136 °C.
Molecule COc1ccc(-c2cccc(C(=O)O)c2)cc1-c1cccc([N+](=O)[O-])c1 [Example 19, 4′-Methoxy-3′-(3-nitrophenyl)-[1,1′-biphenyl]-3-carboxylic acid] has a melting point of 223 to 228 °C.
COc1ccc(-c2ccc(C(=O)O)c(C)c2)cc1-c1cccc([N+](=O)[O-])c1 [Example 20, 4′-Methoxy-3-methyl-3′-(3-nitrophenyl)-[1,1′-biphenyl]-4-carboxylic acid] showed a melting point of 278 to 281 °C.
With COc1ccc(-c2ccc(C(=O)O)cc2)cc1-c1ccc2nonc2c1 [Example 21, 3′-(5-Benzofurazanyl)-4′-methoxy-[1,1′-biphenyl]-4-carboxylic acid] the melting point was > 300 °C.
Work on COc1ccc(-c2ccc(C(=O)O)cc2)cc1-c1cccc(Cl)c1 [Example 22, 4′-Methoxy-3′-(3-chlorophenyl)-[1,1′-biphenyl]-4-carboxylic acid] yielded a melting point of 250 to 252 °C.
Work on COc1ccc(-c2ccc(C(=O)O)cc2)cc1-c1cccc(C#N)c1 [Example 23, 4′-Methoxy-3′-(3-cyanophenyl)-[1,1′-biphenyl]-4-carboxylic acid] yielded a melting point of 280 to 285 °C.
COc1ccc(-c2ccc(C(N)=O)cc2)cc1-c1cccc([N+](=O)[O-])c1 [Example 24, 4′-Methoxy-3′-(3-nitrophenyl)-[1,1′-biphenyl]-4-carboxamide] gave a melting point of 201 to 205 °C.
In the case of COc1ccc(-c2cccc(C(N)=O)c2)cc1-c1cccc([N+](=O)[O-])c1 [Example 25, 4′-Methoxy-3′-(3-nitrophenyl)-[1,1′-biphenyl]-3-carboxamide], the melting point was 118 to 120 °C.
COc1ccc(-c2ccc(C(N)=O)c(C)c2)cc1-c1cccc([N+](=O)[O-])c1 [Example 26, 4′-Methoxy-3-methyl-3′-(3-nitrophenyl)-[1,1′-biphenyl]-4-carboxamide] gave a melting point of 179 to 184 °C.
Molecule CNC(=O)c1ccc(-c2ccc(OC)c(-c3cccc([N+](=O)[O-])c3)c2)cc1 [Example 27, N-Methyl-4′-methoxy-3′-(3-nitrophenyl)-[1,1′-biphenyl]-4-carboxamide] has a melting point of 171 to 172 °C.
In the case of COc1ccc(-c2ccc3nccn3c2)cc1-c1ccc2nonc2c1 [Example 28, 6-[4-Methoxy-3-(5-benzofurazanyl)phenyl]imidazo[1,2-a]pyridine], the melting point was 190 to 196 °C.
